The values that follow come from patent US12180252B2, “Peptide derived from PEP27 peptide and uses thereof” (priority 2021, dated 2024).

One assay has as its system L. monocytogens KCTC3710. It counts as cell-based, Listeria monocytogenes. How it is done: (§1) In order to evaluate the antimicrobial activity of the peptides prepared by the method of above 1, a minimal inhibitory concentration (MIC) value as the minimum concentration of a peptide, in which cells are not divided, was measured.
(§2) Specifically, the strains shown in Table 3 below were purchased, cultured in a medium having a constitutional composition suitable for each strain to a mid-log phase, and then diluted to a concentration of 2×10^4 cells/100 μl to prepare the product on a micro-titration plate (Nunc, USA). Then, PEP27, PEP27-1, PEP27-2 or PEP27-5 peptide synthesized in the above 1 was added to each well by serial dilution ½ times, followed by incubation at 37° C. for 18 hours.

A further assay concerns P. aeruginosa 4007. The assay can be described thus: microbe, parasite or virus in culture. In short, it runs like this:
(§3)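 Peptide growth inhibition measured by twofold dilution against mid-log bacteria (2×10^4 cells/100 μl), 37° C, 18 hours; endpoint was absence of cell division. Meropenem, ceftazidime, ceftriaxone and vancomycin were run in parallel.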

The next assay has as its system P. aeruginosa 4891. As to the kind of experiment: microbe, parasite or virus in culture. The method, boiled down:
as §3

The test system of assay [1] is S. aureus CCARM3089. The assay can be described thus: microbe, parasite or virus in culture. The note with it: S. aureus CCARM3089, antibiotics-tolerant; 37° C., 18 hours. The method, boiled down: as §3
The subject of assay [2] is S. aureus CCARM3090. As to the kind of experiment: microbe, parasite or virus in culture. The note with it: S. aureus CCARM3090, antibiotics-tolerant; 37° C., 18 hours. In short, it runs like this: as §3
Assay [3] has as its system Sa. typhimurium CCARM8007. Format: cell-based, Salmonella typhimurium. As to conditions: Sa. typhimurium CCARM8007, antibiotics-tolerant; 37° C., 18 hours. How it is done:
as §1, §2

The test system of assay [4] is Sa. typhimurium CCARM8009. It counts as cell-based, Salmonella typhimurium. The note with it: Sa. typhimurium CCARM8009, antibiotics-tolerant; 37° C., 18 hours. How it is done: as §1, §2
The next assay has as its system Sa. typhimurium KCTC1926. Format: cell-based, Salmonella typhimurium. On the procedure: as §1, §2
The next assay concerns S. aureus ATCC25923. It counts as cell-based, Staphylococcus aureus. An excerpt: (§4) Biofilms may form on a wide variety of surfaces, including living or dead surfaces, and biofilm-associated bacteria are more tolerant to antibiotics than planktonic bacterial cells, making them antibiotic-resistant. To assess the efficacy of PEP27-2 against biofilms, we observed the anti-biofilm activity of PEP27-2 in S. aureus (ATCC 25923 and CCARM 3090), E. coli (ATCC 25922 and CCARM 1238), and P. aeruginosa (ATCC 27853 and 4891).
(§5) Specifically, among the strains listed in Table 3 above, Staphylococcus aureus, E. coli and Pseudomonas erujinosa, respectively, were cultured in each medium to a mid-log phase, diluted to a cell concentration of 5×10^4 cells/100 μl, and then, inoculated into a micro-plate (SPL). Then, PEP27-2 peptide was diluted 1/10 times with 10 mM PBS solution (pH 7.2) and 10 μl of the solution was added to each well, followed by incubation at 37° C. for 24 hours. After completely removing the supernatant, the solution was fixed with 100% methanol for 15 minutes, stained with a crystal violet dye solution for 1 hour, washed 3 times, and then dissolved in 95% ethanol, followed by measuring the absorbance at a wavelength of 595 nm using a micro titration plate reader, thereby determining a biofilm minimal inhibitory concentration value for each strain.

The next assay deals with S. aureus ATCC29213. Format: cell-based, Staphylococcus aureus.
From the text: as §4, §5

For assay [5], the system named is S. aureus CCARM3089. Format: cell-based, Staphylococcus aureus. The note with it: 37° C., 24 hours.
From the text: as §4, §5

Assay [6] has as its system S. aureus CCARM3090. Format: cell-based, Staphylococcus aureus. The note with it: 37° C., 24 hours.
From the text: as §4, §5

In a further assay the test system is S. aureus CCARM3518. It counts as cell-based, Staphylococcus aureus. As to conditions: 37° C., 24 hours.
From the text: as §4, §5

Another assay concerns E. coli ATCC25922. It counts as cell-based, Escherichia coli.
From the text: as §4, §5

A further assay has as its system E. coli ATCC27325. It counts as cell-based, Escherichia coli.
From the text: as §4, §5

In a further assay the test system is E. coli CCARM1238. Format: cell-based, Escherichia coli. The note with it: 37° C., 24 hours.
From the text: as §4, §5

Assay [7] has as its system 11 types of strains (Staphylococcus aureus, Pseudomonas erujinosa). As to the kind of experiment: MIC, summary over the strains of Table 7. It counts as cell-based. How it is done: In order to compare the antimicrobial activity of PEP27-2, which is the peptide having the most excellent antimicrobial activity among the peptides prepared by the method of above 1, with existing antibiotics, MIC concentrations of specific antibiotics were investigated with regard to the same gram-positive bacteria (Staphylococcus aureus) and the same gram-negative bacteria (Pseudomonas erujinosa) stains. Specifically, subject strains were prepared by the method of above 2, and were treated with the antibiotics, that is, meropenem, ceftazidime, ceftriaxone or vancomycin, respectively, followed by determining MICs of the antibiotics.

Values after ≈ are worked out from the molar mass of the structure shown. Where two headings read alike, the source gives them in different places. Where a SMILES comes first, the peptide text is derived from it.

Consider `CC[C@H](C)[C@H](NC(=O)CN)C(=O)NCC(=O)N[C@@H](C)C(=O)N[C@H](C(=O)N[C@@H](CC(C)C)C(=O)N[C@@H](CCCCN)C(=O)N[C@H](C(=O)N[C@@H](CC(C)C)C(=O)N[C@H](C(=O)N[C@H](C(=O)NCC(=O)N[C@@H](CC(C)C)C(=O)N1CCC[C@H]1C(=O)N[C@@H](C)C(=O)N[C@@H](CC(C)C)C(=O)N[C@H](C(=O)N[C@@H](CO)C(=O)N[C@@H](Cc1c[nH]c2ccccc12)C(=O)N[C@H](C(=O)N[C@@H](CCCCN)C(=O)N[C@@H](CCCNC(=N)N)C(=O)N[C@@H](CCCCN)C(=O)N[C@@H](CCCNC(=N)N)C(=O)N[C@@H](CCC(N)=O)C(=O)N[C@@H](CCC(N)=O)C(N)=O)[C@@H](C)CC)[C@@H](C)CC)[C@@H](C)O)[C@@H](C)O)C(C)C)C(C)C` [Melittin, reference compound], for which the Minimal inhibitory concentration in the assay with L. monocytogens KCTC3710 (L. monocytogens KCTC3710, Gram-positive, 37° C., 18 hours) stood at 4 µM (≈ 11.4 µg/mL); with P. aeruginosa 4007 (P. aeruginosa 4007, antibiotics-tolerant, 37° C., 18 hours), 2 µM (≈ 5.69 µg/mL); in the assay on P. aeruginosa 4891 (P. aeruginosa 4891, antibiotics-tolerant, 37° C., 18 hours), 2 µM (≈ 5.69 µg/mL); with S. aureus CCARM3089 [1] it was 2 µM (≈ 5.69 µg/mL); in the assay on S. aureus CCARM3090 [2], 4 µM (≈ 11.4 µg/mL); in [3], 4 µM (≈ 11.4 µg/mL). In addition, the Minimal inhibitory concentration was determined as 4 µM (≈ 11.4 µg/mL) in assay [4] and 4 µM (≈ 11.4 µg/mL) in the assay on Sa. typhimurium KCTC1926 (Sa. typhimurium KCTC1926, Gram-negative, 37° C., 18 hours). For the same molecule, the “Biofilm minimal inhibitory concentration” value came out at 4 µM in the assay with S. aureus ATCC25923 (S. aureus ATCC25923, 37° C., 24 hours); 4 µM with S. aureus ATCC29213 (S. aureus ATCC29213, 37° C., 24 hours); 4 µM with S. aureus CCARM3089 [5]; 4 µM in the assay on S. aureus CCARM3090 [6]; 8 µM in the assay on S. aureus CCARM3518; 4 µM in the assay with E. coli ATCC25922 (E. coli ATCC25922, 37° C., 24 hours). The “Biofilm minimal inhibitory concentration” value with E. coli ATCC27325 (E. coli ATCC27325, 37° C., 24 hours) was 4 µM; in the assay on E. coli CCARM1238 it was 4 µM.
In the case of `CSCC[C@H](N)C(=O)N[C@@H](Cc1c[nH]c2ccccc12)C(=O)N[C@@H](CCCCN)C(=O)N[C@@H](Cc1c[nH]c2ccccc12)C(=O)N[C@@H](Cc1ccccc1)C(=O)N[C@@H](Cc1c[nH]cn1)C(=O)N[C@@H](CC(N)=O)C(=O)N[C@H](C(=O)N[C@@H](CC(C)C)C(=O)N[C@@H](CO)C(=O)N[C@@H](Cc1c[nH]c2ccccc12)C(=O)NCC(=O)N[C@@H](Cc1c[nH]c2ccccc12)C(=O)N[C@@H](CC(C)C)C(=O)N[C@@H](CC(C)C)C(=O)N[C@@H](C)C(=O)N[C@@H](CC(=O)O)C(=O)N[C@@H](CCCCN)C(=O)N[C@@H](CCCNC(=N)N)C(=O)N1CCC[C@H]1C(=O)N[C@@H](C)C(=O)N[C@@H](CCCNC(=N)N)C(=O)N[C@@H](CC(=O)O)C(=O)N[C@@H](Cc1ccc(O)cc1)C(=O)N[C@@H](CC(N)=O)C(=O)N[C@@H](CCCNC(=N)N)C(=O)N[C@@H](CCCCN)C(N)=O)C(C)C` [PEP27-2] (H-MWKWFHNVLSWGWLLADKRPARDYNRK-NH2), the Minimal inhibitory concentration amounted to 8 µM (≈ 27.8 µg/mL) with L. monocytogens KCTC3710 (KCTC3710, 18 h); 4 µM (≈ 13.9 µg/mL) in the assay on P. aeruginosa 4007 (4007, 18 h); 4 µM (≈ 13.9 µg/mL) with P. aeruginosa 4891 (4891, 18 h); 4 µM (≈ 13.9 µg/mL) with S. aureus CCARM3089 [1]; 4 µM (≈ 13.9 µg/mL) with S. aureus CCARM3090 [2]; 4 µM (≈ 13.9 µg/mL) in assay [3]. Besides, the Minimal inhibitory concentration was 4 µM (≈ 13.9 µg/mL) in [4] and 8 µM (≈ 27.8 µg/mL) in the assay on Sa. typhimurium KCTC1926 (KCTC1926, 18 h). For the same molecule, the “maximum percent biofilm inhibition” value turned out to be 83.4% in the assay with S. aureus ATCC25923 (ATCC25923) and 91.8% in the assay on E. coli ATCC25922 (ATCC25922). Also, the “Biofilm minimal inhibitory concentration” value worked out at 4 µM with S. aureus ATCC25923 (ATCC25923, 24 h); 4 µM with S. aureus ATCC29213 (ATCC29213, 24 h); 4 µM in the assay on S. aureus CCARM3089 [5]; 4 µM in the assay on S. aureus CCARM3090 [6]; 4 µM in the assay on S. aureus CCARM3518; 8 µM with E. coli ATCC25922 (ATCC25922, 24 h). The “Biofilm minimal inhibitory concentration” value in the assay on E. coli ATCC27325 (ATCC27325, 24 h) was found to be 8 µM; with E. coli CCARM1238 it was 8 µM. In assay [7], the “MIC range over the strains of Table 7” value lay in the range of 2 to 4 µM.
